Test results reported in patent US11230524B2, “Myocyte enhancer factor 2 (MEF2) modulators” (STANDARD LLC, priority 2017, dated 2022).
pIC50: −log10 of the molar value.

These compounds were tested against MEF2D/HDAC4 protein-protein interactions (Homo sapiens (Human), UniProt Q14814) (assay: Mammalian two-hybrid assay, inhibition of MEF2D and HDAC4 protein interactions (luciferase reporter in HeLa cells)). Settings: HeLa cells co-transfected with GAL4-MEF2D, HDAC4-VP16 and Gal4Luc; overnight treatment; luciferase normalized to Renilla.
Sequence of MEF2D/HDAC4 protein-protein interactions (Q14814 whole entry, species assumed, the tested form may be a part): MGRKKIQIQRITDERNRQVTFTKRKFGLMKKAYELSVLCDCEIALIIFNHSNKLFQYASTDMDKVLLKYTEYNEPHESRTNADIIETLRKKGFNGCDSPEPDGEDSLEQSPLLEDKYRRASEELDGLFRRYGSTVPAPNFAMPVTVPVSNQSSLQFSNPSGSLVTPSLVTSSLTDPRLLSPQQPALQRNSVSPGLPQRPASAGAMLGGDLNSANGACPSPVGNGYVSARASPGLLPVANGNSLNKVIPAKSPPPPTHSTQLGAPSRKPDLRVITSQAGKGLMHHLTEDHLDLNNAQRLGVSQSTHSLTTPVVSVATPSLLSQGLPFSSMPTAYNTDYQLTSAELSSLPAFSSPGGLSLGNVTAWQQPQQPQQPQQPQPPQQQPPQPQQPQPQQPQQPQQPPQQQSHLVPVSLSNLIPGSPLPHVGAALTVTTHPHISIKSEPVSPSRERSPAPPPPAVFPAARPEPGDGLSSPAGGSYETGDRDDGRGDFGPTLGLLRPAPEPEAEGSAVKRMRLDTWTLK
Type: cell-based
Excerpt: Detection of MEF2D and HDAC4 interactions. In this mammalian two-hybrid assay, HDAC4 and MEF2D proteins were used. […] Human epithelial carcinoma cells (HeLa) were co-transfected with the two DNA constructs (GAL4-MEF2D and HDAC4-VP16) and a reporter plasmid (Gal4Luc). […] MEF2D and HDAC4 protein interactions were detected as a result of the GAL4-MEF2D and HDAC4-VP16 protein complex binding a DNA promoter on the reporter plasmid (Gal4Luc) and driving cellular expression of a luciferase gene. The measured luciferase protein signal was proportional to the amount of MEF2D and HDAC4 protein interactions occurring with the cell.
The HDAC4 fragment lacked the catalytic domain so that the deacetylase activity was excluded from the assay.
Detection of inhibition of MEF2D and HDAC4 interactions. Next, the assay was used to test whether the compounds could disrupt the interactions between MEF2D and HDAC4. After co-expressing the GAL4-MEF2D and HDAC4-VP16 DNA constructs and reporter plasmid, the HeLa cells were treated with a test compound (10 μM) overnight. Cells transfected with the positive control GAL4VP16 fusion construct and reporter plasmid were also treated with the test compound (10 μM) overnight. As another control, DMSO was added (but kept below 0.2% V/V) to cells transfected with the positive GAL4VP16 fusion construct or the GAL4-MEF2D and HDAC4-VP16 DNA constructs. A luciferase assay was performed as described above according to the manufacturer's protocol (Promega). The luciferase response was normalized against the Renilla Luciferase as an internal control.
The relative activity and IC50 calculations. […] The relative activity, I, was the ratio of former to later, i.e. X/Y, expressed in percentile. […] The IC50 was the concentration of the compounds when X/Y equals 50.

| SMILES | pIC50 |
| --- | --- |
| Nc1ccccc1NC(=O)/C=C/c1cccc(C(=O)Nc2nc(-c3ccncc3)cs2)c1 [ST57] | < 4.70 |
| Nc1ccccc1NC(=O)/C=C/c1cccc(CNc2cccc(N3CCCC3)c2)c1 [ST10] | 5.60 |
| CCOC(=O)NC(CCCCC(=O)Nc1ccccc1N)C(=O)Nc1cccc(Br)c1 (stereo not shown) [ST80] | 6.25 |
| Nc1ccccc1NC(=O)/C=C/c1cccc(CNc2nc3ccccc3s2)c1 [ST50] | 5.59 |
| Nc1ccccc1NC(=O)CCCCC(NC(=O)c1ccccc1)C(=O)Nc1ccncc1 (stereo not shown) [ST121] | 5.56 |
| CCOC(=O)NC(CCCCC(=O)Nc1ccccc1N)C(=O)Nc1cccc2cccnc12 (stereo not shown) [ST117] | 6.03 |
| O=C(/C=C/c1cccc(CNc2cccc(OC3CCC3)c2)c1)NO [ST28] | 6.17 |
| CCN(CC)c1cccc(NCc2cccc(/C=C/C(=O)Nc3ccccc3N)c2)c1 [ST9] | 5.45 |
| COc1ccc(-c2csc(NCc3cccc(/C=C/C(=O)Nc4ccccc4N)c3)n2)cc1 [ST51] | < 4.70 |
| COc1ccc(NCC2C=C(/C=C/C(=O)NO)CCC2)cc1 (stereo not shown) [ST36] | 5.73 |
| CCCCc1cccc(NCc2cccc(/C=C/C(=O)NO)c2)c1 [ST34] | 5.69 |
| Cc1coc(NCc2cccc(/C=C/C(=O)Nc3ccccc3N)c2)n1 [ST67] | 5.51 |
| Nc1ccccc1NC(=O)/C=C/c1cccc(CNc2cccc(N3CCOCC3)c2)c1 [ST8] | 5.62 |
| Nc1ccccc1NC(=O)/C=C/c1cccc(C(C(=O)Nc2ccccc2)C(=O)Nc2ccccc2)c1 [ST58] | 5.52 |
| Nc1ccccc1NC(=O)/C=C/c1cccc(CNc2nnc(C(F)(F)F)s2)c1 [ST61] | 5.10 |
| CCOC(=O)NC(CCCCC(=O)Nc1ccccc1N)C(=O)Nc1ccccn1 (stereo not shown) [ST126] | 5.43 |
| CCOC(=O)N[C@H](CCCCC(=O)Nc1ccccc1N)C(=O)Nc1cccc(Br)c1 [ST95] | 5.98 |
| Cc1coc(NCc2cccc(/C=C/C(=O)NO)c2)n1 [ST77] | 6.19 |
| CCOC(=O)NC(CCCCC(=O)Nc1ccccc1N)C(=O)Nc1cncc(OCC)c1 (stereo not shown) [ST127] | 5.74 |
| Cc1nnc(NCc2cccc(/C=C/C(=O)Nc3ccccc3N)c2)o1 [ST65] | 5.27 |

| SMILES | pIC50 |
| --- | --- |
| CCOC(=O)NC(CCCCC(=O)Nc1ccccc1N)C(=O)Nc1ccncc1 (stereo not shown) [ST125] | 5.61 |
| Cc1nnc(NCc2cccc(/C=C/C(=O)NO)c2)s1 [ST73] | 5.94 |
| O=C(/C=C/c1cccc(CNc2ccccc2)c1)NO [ST15] | 6.04 |
| Nc1ccccc1NC(=O)CCCC[C@H](NC(=O)OCC1CC1)C(=O)Nc1cccc(Br)c1 [ST99] | 6.23 |
| COC(=O)N[C@H](CCCCC(=O)Nc1ccccc1N)C(=O)Nc1cccc(Br)c1 [ST96] | 5.86 |
| O=C(CCCC[C@@H](NC(=O)c1ccccn1)C(=O)Nc1cccc(Br)c1)NO [ST111] | 6.03 |
| O=C(/C=C/c1cccc(CNc2cccc(N3CCCC3)c2)c1)NO [ST37] | 6.23 |
| Cc1nnc(NCc2cccc(/C=C/C(=O)Nc3ccccc3N)c2)s1 [ST60] | 5.30 |
| O=C(/C=C/c1cccc(CNc2cccc(OC3CCCC3)c2)c1)NO [ST29] | 5.93 |
| Nc1ccccc1NC(=O)CCCCC(N)C(=O)Nc1cccc(Br)c1 (stereo not shown) [ST87] | 5.51 |
| CCN1CCN(C(CCCCC(=O)Nc2ccccc2N)C(=O)Nc2cccc(Br)c2)C1=O (stereo not shown) [ST105] | 5.83 |
| Nc1ccccc1NC(=O)/C=C/c1cccc(Nc2nccc(-c3cccnc3)n2)c1 [ST48] | < 4.70 |
| CC(C)Oc1cccc(NCc2cccc(/C=C/C(=O)Nc3ccccc3N)c2)c1 [ST5] | 3.72 |
| CCOC(=O)N[C@H](CCCCC(=O)NO)C(=O)Nc1cccc(Br)c1 [ST112] | 6.21 |
| CC(C)(C)OC(=O)N[C@@H](CCCCC(=O)Nc1ccccc1N)C(=O)Nc1cccc(Br)c1 [ST106] | 5.95 |
| O=C(/C=C/c1cccc(CNc2cccc(F)c2)c1)NO [ST18] | 5.99 |
| Nc1ccccc1NC(=O)/C=C/c1ccc(F)c(CNc2ccccc2)c1 [ST11] | 4.74 |
| CN(C)c1ccc(/C=C2C=C(/C=C/C(=O)NO)CCC/2)cc1 [ST30] | < 4.70 |
| CCOC(=O)NC(CCCCC(=O)Nc1ccccc1N)C(=O)Nc1cccc(SC(F)(F)F)c1 (stereo not shown) [ST84] | 6.03 |
| O=C(CCCCC(NC(=O)c1cccnc1)C(=O)Nc1cccc(Br)c1)NO (stereo not shown) [ST109] | 6.17 |

| SMILES | pIC50 |
| --- | --- |
| O=C(/C=C/c1cccc(CNc2cccc(OCC(F)(F)F)c2)c1)NO [ST46] | 6.17 |
| CCOC(=O)NC(CCCCC(=O)Nc1ccccc1N)C(=O)Nc1cccc(C(C)(F)F)c1 (stereo not shown) [ST81] | 6.07 |
| CCOc1cccc(NCC2C=C(/C=C/C(=O)NO)CCC2)c1 (stereo not shown) [ST35] | 5.33 |
| Cc1nnc(NCc2cccc(/C=C/C(=O)NO)c2)o1 [ST76] | < 5.00 |
| O=C(/C=C/c1cccc(CNc2ccc(F)cc2)c1)NO [ST17] | 6.00 |
| O=C(/C=C/c1cccc(CNc2ccc(Cl)cc2)c1)NO [ST26] | 6.10 |
| O=C(CCCC[C@@H](NC(=O)c1ccccc1)C(=O)NC1CC1)NO [ST128] | 5.60 |
| CCC(=O)CNC(CCCCC(=O)NO)C(=O)Nc1cccc(Br)c1 (stereo not shown) [ST114] | 5.90 |
| Nc1ccccc1NC(=O)CCCCC(NC(=O)c1ccccn1)C(=O)Nc1cccnc1 (stereo not shown) [ST122] | 5.79 |
| CCOC(=O)NC(CCCCC(=O)Nc1cccc(Br)c1)C(=O)Nc1ccccc1N (stereo not shown) [ST86] | < 4.70 |
| CCOC(=O)NC(CCCCC(=O)Nc1ccccc1N)C(=O)Nc1cncc(OC)c1 (stereo not shown) [ST124] | 5.82 |
| Nc1ccccc1NC(=O)/C=C/c1cccc(CNc2cccc(N3CCCCC3)c2)c1 [ST6] | 5.61 |
| CCc1cccc(NCc2cccc(/C=C/C(=O)NO)c2)c1 [ST22] | 6.27 |
| Nc1ccccc1NC(=O)/C=C/c1cccc(CNc2nc(C(F)(F)F)cs2)c1 [ST62] | 5.52 |
| CCOC(=O)NC(CCCCC(=O)Nc1ccccc1N)C(=O)Nc1cccnc1 (stereo not shown) [ST123] | 5.70 |
| CCOC(=O)NC(CCCCC(=O)Nc1ccccc1N)C(=O)Nc1ccccc1 (stereo not shown) [ST91] | 5.84 |
| O=C(/C=C/c1cccc(CNc2ccc(F)c(F)c2)c1)NO [ST24] | 5.99 |
| CCCCNC(CCCCC(=O)Nc1ccccc1N)C(=O)Nc1cccc(Br)c1 (stereo not shown) [ST88] | 5.14 |

Next, values leading:

| pIC50 | SMILES |
| --- | --- |
| 6.51 | O=C(/C=C/c1cccc(CNc2cccc(N3CCCCC3)c2)c1)NO [ST39] |
| 6.35 | CC(C)OC(=O)N[C@@H](CCCCC(=O)Nc1ccccc1N)C(=O)Nc1cccc(Br)c1 [ST97] |
| 6.42 | O=C(/C=C/c1cccc(CNc2cccc(OC3CC3)c2)c1)NO [ST16] |
| 6.59 | CCN(C)c1cccc(NCc2cccc(/C=C/C(=O)NO)c2)c1 [ST38] |
| 6.60 | O=C(/C=C/c1cccc(CNc2cccc(N3CCOCC3)c2)c1)NO [ST32] |
| 6.49 | Nc1ccccc1NC(=O)CCCC[C@H](NC(=O)CC1CC1)C(=O)Nc1cccc(Br)c1 [ST98] |
| 6.38 | CCCC(=O)NC(CCCCC(=O)NO)C(=O)Nc1cccc(Br)c1 (stereo not shown) [ST110] |
| 6.46 | CC(C)Oc1cccc(NCc2cccc(/C=C/C(=O)NO)c2)c1 [ST27] |
| 6.46 | CC(C)CC(=O)N[C@@H](CCCCC(=O)Nc1ccccc1N)C(=O)Nc1cccc(Br)c1 [ST101] |
| 6.49 | CSc1cccc(NCc2cccc(/C=C/C(=O)NO)c2)c1 [ST20] |
| 6.36 | CCOC(=O)N[C@@H](CCCCC(=O)NO)C(=O)Nc1cccc(Br)c1 [ST107] |
| 6.38 | N#Cc1cccc(NCc2cccc(/C=C/C(=O)NO)c2)c1 [ST23] |
| 6.59 | O=C(/C=C/c1cccc(CNc2cccc(N3CCNCC3)c2)c1)NO [ST40] |
| 6.57 | O=C(/C=C/c1cccc(CNc2cccc(C3COC3)c2)c1)NO [ST43] |
| 6.39 | O=C(/C=C/c1cccc(CNc2nc(C(F)(F)F)cs2)c1)NO [ST75] |
| 7.15 | CN(C)Cc1ccc(NCc2cccc(/C=C/C(=O)NO)c2)cc1 [ST42] |
| 6.49 | O=C(/C=C/c1cccc(CNc2nnc(C(F)(F)F)s2)c1)NO [ST74] |
| 6.30 | CCOC(=O)NC(CCCCC(=O)Nc1ccccc1N)C(=O)Nc1cccc(SC)c1 (stereo not shown) [ST82] |
| 6.31 | CCOC(=O)NC(CCCCC(=O)Nc1ccccc1N)C(=O)Nc1ccc2ncccc2c1 (stereo not shown) [ST118] |
| 6.27 | CCOC(=O)NC(CCCCC(=O)Nc1ccccc1N)C(=O)Nc1nc(-c2ccncc2)cs1 (stereo not shown) [ST115] |
| 6.55 | O=C(/C=C/c1cccc(CNc2nc(C(F)(F)F)co2)c1)NO [ST79] |
| 6.68 | CCOC(=O)N[C@@H](CCCCC(=O)Nc1ccccc1N)C(=O)Nc1cccc(OCC)c1 [ST100, (S)-ethyl (7-((2-aminophenyl)amino)-1-((3-ethoxyphenyl)amino)-1,7-dioxoheptan-2-yl)carbamate] |
| 6.49 | COc1cccc(NCc2cccc(/C=C/C(=O)NO)c2)c1 [ST19] |
| 6.46 | COC(=O)N[C@@H](CCCCC(=O)Nc1ccccc1N)C(=O)Nc1cccc(Br)c1 [ST103] |
| 6.34 | CCCC(=O)NC(CCCCC(=O)Nc1ccccc1N)C(=O)Nc1cccc(Br)c1 (stereo not shown) [ST90] |
| 6.46 | CCOc1cccc(NCc2cccc(/C=C/C(=O)NO)c2)c1 [ST21] |
| 6.85 | O=C(/C=C/c1cccc(CNc2nc(-c3ccncc3)cs2)c1)NO [ST70] |
